Patent US20260263384A1, “TRANSDERMAL ELLECTRICALLY CONDUCTIVE PATCH” (KIKKOMAN CORPORATION, priority 2023, published 2026)
Counter-ions that a name gives are not always drawn.

How the values were obtained:
[1] = cited from earlier work
[2] = system: skin-mimicking three-dimensional epidermal models (EPI-MODEL12, J-TEC); experiment: Evaluation of electro-osmosis (electro-permeation): drug permeation through three-dimensional epidermal model into reservoir solution with vs without electric current (permeation evaluation system 1), HPLC; details: ketoprofen solution pH 6.6, 20 μA for 2 hours
Description: A specific method for evaluating drug permeation into the skin is described. A 7 mm×7 mm carbon cloth is coated with 80 µl of a solution of multi-walled carbon nanotubes in two separate instances and dried at 60° C. The carbon cloth is washed with pure water and further dried to prepare an electrode to be provided directly on cells. Skin-mimicking three-dimensional epidermal models (EPI-MODEL12, J-TEC) are used as the cells. Phosphate-buffered saline (PBS) is used as a reservoir solution. An Ag/AgCl electrode is introduced into the reservoir solution. Subsequently, each electrode is electrically connected to a […] source meter. A drug is dissolved in an appropriate solution. The drug solution of 400 µl is added dropwise to the cells, and the carbon cloth electrode is soaked therein. First, an electrode on the cells is connected to the positive electrode, and the Ag/AgCl electrode on the reservoir solution side is connected to the negative electrode. […] In the same manner, comparative experiment of adding 400 µl of the same drug solution dropwise to the cells is performed without the application of the electric current. […] Analysis can be performed by HPLC analysis, mass analysis, or other means. The amount of permeation with the application of the electric current is compared with that without the application of the electric current. […]

## CCCCNc1ccc(C(=O)OCCN(C)C)cc1 [tetracaine hydrochloride]
[1]
  pKa: 8.4

## CC(C(=O)O)c1cccc(C(=O)c2ccccc2)c1 (stereo not drawn) [ketoprofen]
[2]; electrode on the cells connected to positive electrode
  amount of permeation compared with a system without applying an electric current (100%): 306%
[2]; reversed direction, electrode on the cells connected to negative electrode
  amount of permeation relative to that measured in a system without applying an electric current (100%): 231%
